Data as given in patent US20210318318A1, “Kinase Activity In Tumors” (Institute For Cancer Research d/b/a The Research Institute …, priority 2018, published 2021).
Blank lines part the entries; values can stand above or below the compound they belong to.

Experiments:
[1] = tested on: FAK1, MLC and Paxillin phosphorylation; FAK1 and CHEK1 protein levels; experiment: Western blot of signaling in inhibitor-treated HGSOC cells; format: cell-based, human; conditions: HGSOC (COV362) cells, increasing doses 0.5, 1 or 3 μM, 48 hours
Method: COV362 cells were treated with 0.5, 1 or 3 μM of A-674563 or SB-772077 for 48 hours and signaling monitored by western blot.
Samples were harvested in MIB lysis buffer, subjected to SDS-PAGE […] and transferred to PVDF membranes before western blotting with primary antibodies. For pMYPT and pMLC blots, cells were harvested in a buffer containing 1% (w/v) SDS, 50 mM Tris pH 7.5 supplemented with protease and phosphatase inhibitors buffer and were passed through QIAshredder columns (Qiagen, 79654), (Unbekandt et al., Cell Commun. Signal., 2014, 12, 54). For the list of primary antibodies used, see Table 4. Secondary HRP-anti-rabbit and HRP-anti-mouse were obtained from ThermoFisher Scientific. SuperSignal West Pico and Femto Chemiluminescent Substrates (Thermo) were used to visualize blots.

MRCKA = MRCKA (Homo sapiens, UniProt Q5VT25); experiment: MIB/MS kinome profiling of inhibitor-treated OVSAHO cells; format: cell-based; set-up: endogenous in cells; host or cells: OVSAHO; conditions: 2 μM, 4 hour treatment
Method: (§1) OVSAHO cells were treated with inhibitors at a dose of 2 μM for 4 hours and kinase inhibition profiles determined by MIB/MS. Bar graph depicts % of kinase bound to MIBs relative to DMSO control as determined by label free quantitation.
(§2) OVSAHO cells were treated with 2 μM of inhibitor for 4 hours and analyzed by MIB/MS. Scatterplot depicts difference in kinase MIB-binding of drug treated relative to control DMSO as determined by Students T-test.
(§3) MIB-based kinome profiling was performed on several of these molecules in HGSOC cells to determine kinome-wide inhibition profiles.
(§4) Experiments using MIB/MS were performed as previously described (Duncan et al., Cell, 2012, 149, 307-321; and Kurimchak et al., Cell Reports, 2016, 16, 1273-1286). Briefly, cells or tumors were lysed on ice in buffer containing 50 mM HEPES (pH 7.5), 0.5% Triton X-100, 150 mM NaCl, 1 mM EDTA, 1 mM EGTA, 10 mM sodium fluoride, 2.5 mM sodium orthovanadate, 1× protease inhibitor cocktail (Roche), and 1% each of phosphatase inhibitor cocktails 2 and 3 (Sigma). Particulate was removed by centrifugation of lysates at 13,000 rpm for 10 minutes at 4° C. and filtration through 0.2 μm syringe filters. Protein concentrations were determined by BCA analysis (Thermo). To compare kinome signatures within and across such large sample sizes, a super-SILAC method was designed (Neubert et al., Nat. Meth., 2010, 7, 361-362) consisting of a cocktail of cancer cell lines that encompasses the activity of the “cancer kinome” to be used as a control for individual samples. Five cancer cell lines were selected from the NCI-60 panel (UACC257, MOLT4, COL0205, ACHN and PC3) that differed in their origin, gene expression patterns and mutation status. The cancer cell lines were labeled using SILAC and mixed equally providing a diverse SILAC ([^13C6,^15N4] arginine (Arg^10) and […] (Lys^8)) heavy kinome reference standard (HKS) to be used repeatedly in kinome profiling assays. An equal amount of the HKS was added to the non-labeled sample (cell, tumor or normal tissue) providing a quantitative strategy to compare kinome activity/levels across samples, amongst treatments and, importantly, across time. […]
(§5) Proteolytic peptides were resuspended in 0.1% formic acid and separated with a Thermo RSLC Ultimate 3000 on a Thermo Easy-Spray C18 PepMap 75 μm×50 cm C-18 2 μm column with a 240 minute gradient of 4-25% acetonitrile with 0.1% formic acid at 300 nL/min and 50° C. Eluted peptides were analyzed by a Thermo Q Exactive plus mass spectrometer utilizing a top 15 methodology in which the 15 most intense peptide precursor ions were subjected to fragmentation.

MRCKB = target: T1, MRCKB (Homo sapiens, UniProt Q9Y5S2); experiment: as above; format: cell-based; conditions: 2 μM, 4 hour treatment
T1 construct: endogenous in cells; host or cells: OVSAHO
Method: as §1, §2, §3, §4, §5

ROCK1 = target: T2, ROCK1 (Homo sapiens, UniProt Q13464); experiment: as above; format: cell-based; conditions: 2 μM, 4 hours
T2 construct: endogenous in cells; host or cells: OVSAHO
Method: as §2
Scatter plot depicts statistical differences in MIB-binding as a ratio of inhibitor/DMSO. Cells were treated with inhibitors at a dose of 2 μM and subjected to MIB/MS. Changes in MIB-binding were quantified using label free quantitation. Data presented in (A) are triplicate experiments SEM. *p≤0.05 by student's t-test.
as §3
Experiments using MIB/MS were performed as previously described (Duncan et al., Cell, 2012, 149, 307-321; and Kurimchak et al., Cell Reports, 2016, 16, 1273-1286). […] Protein concentrations were determined by BCA analysis (Thermo). […] An equal amount of the HKS was added to the non-labeled sample (cell, tumor or normal tissue) providing a quantitative strategy to compare kinome activity/levels across samples, amongst treatments and, importantly, across time. […]

ROCK2 = target: T3, ROCK2 (Homo sapiens, UniProt O75116); experiment: as above; format: cell-based; conditions: 2 μM, 4 hours
T3 construct: endogenous in cells; host or cells: OVSAHO
Method: as §2, §3
Experiments using MIB/MS were performed as previously described (Duncan et al., Cell, 2012, 149, 307-321; and Kurimchak et al., Cell Reports, 2016, 16, 1273-1286). Briefly, cells or tumors were lysed on ice in buffer containing 50 mM HEPES (pH 7.5), 0.5% Triton X-100, 150 mM NaCl, 1 mM EDTA, 1 mM EGTA, 10 mM sodium fluoride, 2.5 mM sodium orthovanadate, 1× protease inhibitor cocktail (Roche), and 1% each of phosphatase inhibitor cocktails 2 and 3 (Sigma). Particulate was removed by centrifugation of lysates at 13,000 rpm for 10 minutes at 4° C. and filtration through 0.2 μm syringe filters. Protein concentrations were determined by BCA analysis (Thermo). To compare kinome signatures within and across such large sample sizes, a super-SILAC method was designed (Neubert et al., Nat. Meth., 2010, 7, 361-362) consisting of a cocktail of cancer cell lines that encompasses the activity of the “cancer kinome” to be used as a control for individual samples. […] An equal amount of the HKS was added to the non-labeled sample (cell, tumor or normal tissue) providing a quantitative strategy to compare kinome activity/levels across samples, amongst treatments and, importantly, across time. […]
as §5

COV362 = experiment: Short-term growth assay (CellTiter-Glo cell viability), kinase inhibitors; format: cell-based, human; conditions: drug 1.2 uM
Method: (§6) Cell viability was determined by Cell Titer Glo analysis.
COV362 cells were treated with increasing concentrations of A-674563 and cell viability assessed by Cell Titer Glo according to manufacturer's instructions. Data represent the mean of six replicates.
(§7) To explore the therapeutic potential of the HGSOC kinome signature, a detailed molecular analysis of protein levels/activity, growth and survival functions was carried out in a panel of recently validated HGSOC cell lines (Coscia et al., Nat. Commun., 2016, 7, 12645) that harbor commonly encountered HGSOC mutations and genetic rearrangements (see, FIG. 5A).
(§8) For short-term growth assays, 3000-5000 cells were plated per well in 96-well plates and allowed to adhere and equilibrate overnight. Drug was added the following morning and after 120 hours of drug treatment, cell viability was assessed using the CellTiter-Glo Luminescent cell viability assay according to manufacturer (Promega). Students t tests were performed for statistical analyses and p values ≤0.05 were considered significant. For colony formation assays, cells were plated in 24-well dishes (3000-5000 cells per well) and incubated overnight before continuous drug treatment for 14 days, with drug and media replaced twice weekly. At the end of treatment, cells were rinsed with PBS and fixed with chilled methanol for 10 minutes at −20° C. Methanol was removed by aspiration, and cells were stained with 0.5% crystal violet in 20% methanol for 20 minutes at room temperature, washed with distilled water, and scanned.

Kuramochi = experiment: as above; format: cell-based, human; conditions: drug 1.2 uM
Method: as §6, §7, §8

SNU-119 = experiment: as above; format: cell-based, human; conditions: drug 1.2 uM
Method: as §6, §7, §8

OVSAHO = experiment: as above; format: cell-based, human; conditions: drug 1.2 uM
Method: as §6, §7, §8

OVCAR4 = experiment: as above; format: cell-based, human; conditions: drug 1.2 uM
Method: as §6, §7, §8

HGSOC cells [2] = experiment: Cell viability of HGSOC cell line panel (Cell Titer Glo); format: cell-based, human; conditions: increasing concentrations; Cell Titer Glo
Method: Cells were treated with increasing concentrations of PF-03758309 and cell viability assessed by Cell Titer Glo according to manufacturer's instructions. Data represent the mean of six replicates.
Cell viability was assessed by Cell Titer Glo according to manufacturing. Data represent the mean of six replicates.
as §8

OVCAR4 cells = experiment: Drug growth inhibition in cells depleted of dark kinases by siRNA (Cell Titer Glo); format: cell-based, human; conditions: increasing doses of drug
Method: OVCAR4 cells were transfected with control nontargeting or dark kinase siRNAs and treated with escalating doses of appropriate drugs.
(§9) To explore if blocking dark kinases AAK1, STK38 or MRCKA activity in combination with current therapies improves drug efficacy, OVCAR4 cells depleted of AAK1, STK38 or MRCKA were treated with increasing doses of carboplatin, olaparib, JQ1, or a variety of kinase inhibitors in clinical trials for HGSOC.
(§10) siRNA transfections were performed using 25 nM siRNA duplex and the reverse transfection protocol. 3000-5000 cells per well were added to 96 well plates with media containing the siRNA and transfection reagent (Lipofectamine RNAiMax) according to the manufacturer's instructions. In experiments where inhibitors were used, the inhibitor was added at the time of transfection. Cells were allowed to grow for 72-120 hours post-transfection prior to CellTiter Glo (Promega) analysis. Two-to-three independent experiments were performed with each cell line and siRNA. Students t tests were performed for statistical analyses and p values ≤0.05 were considered significant. For western blot studies, the same procedure was performed with volumes and cell numbers proportionally scaled to a 60 mm or 10 cm dish, and cells were collected 24-72 hours post-transfection. siRNA product numbers and manufacturers are listed in Table 5.

[3] = tested on: carboplatin-resistant COV362 cells; experiment: Carboplatin response in cells depleted of MRCKA by siRNA; format: cell-based, human
Method: (§11) Cells transfected with control or MRKCA siRNAs were treated with increasing doses of carboplatin. Cell viability was assessed by Cell Titer Glo according to manufacturer's instructions. Data represent the mean of six replicates. GR50 were determined using PRISM.
as §9
as §10, with “For western blot studies, the same procedure was performed with volumes and cell numbers proportionally scaled to a 60 mm or 10 cm dish, and cells were collected 24-72 hours post-transfection. siRNA product numbers and manufacturers are listed in Table 5.” left out

HGSOC cells [4] = experiment: Drug response in cells depleted of MRCKA by siRNA (Cell Titer Glo, cleaved PARP blots); format: cell-based, human
Method: as §11
Cells transfected with control or MRKCA siRNAs were treated with increasing doses of olaparib. Cell viability was assessed by Cell Titer Glo according to manufacturer's instructions. Data represent the mean of six replicates. GR50 were determined using PRISM.
as §9, §10

T1 sequence (Q9Y5S2 whole entry): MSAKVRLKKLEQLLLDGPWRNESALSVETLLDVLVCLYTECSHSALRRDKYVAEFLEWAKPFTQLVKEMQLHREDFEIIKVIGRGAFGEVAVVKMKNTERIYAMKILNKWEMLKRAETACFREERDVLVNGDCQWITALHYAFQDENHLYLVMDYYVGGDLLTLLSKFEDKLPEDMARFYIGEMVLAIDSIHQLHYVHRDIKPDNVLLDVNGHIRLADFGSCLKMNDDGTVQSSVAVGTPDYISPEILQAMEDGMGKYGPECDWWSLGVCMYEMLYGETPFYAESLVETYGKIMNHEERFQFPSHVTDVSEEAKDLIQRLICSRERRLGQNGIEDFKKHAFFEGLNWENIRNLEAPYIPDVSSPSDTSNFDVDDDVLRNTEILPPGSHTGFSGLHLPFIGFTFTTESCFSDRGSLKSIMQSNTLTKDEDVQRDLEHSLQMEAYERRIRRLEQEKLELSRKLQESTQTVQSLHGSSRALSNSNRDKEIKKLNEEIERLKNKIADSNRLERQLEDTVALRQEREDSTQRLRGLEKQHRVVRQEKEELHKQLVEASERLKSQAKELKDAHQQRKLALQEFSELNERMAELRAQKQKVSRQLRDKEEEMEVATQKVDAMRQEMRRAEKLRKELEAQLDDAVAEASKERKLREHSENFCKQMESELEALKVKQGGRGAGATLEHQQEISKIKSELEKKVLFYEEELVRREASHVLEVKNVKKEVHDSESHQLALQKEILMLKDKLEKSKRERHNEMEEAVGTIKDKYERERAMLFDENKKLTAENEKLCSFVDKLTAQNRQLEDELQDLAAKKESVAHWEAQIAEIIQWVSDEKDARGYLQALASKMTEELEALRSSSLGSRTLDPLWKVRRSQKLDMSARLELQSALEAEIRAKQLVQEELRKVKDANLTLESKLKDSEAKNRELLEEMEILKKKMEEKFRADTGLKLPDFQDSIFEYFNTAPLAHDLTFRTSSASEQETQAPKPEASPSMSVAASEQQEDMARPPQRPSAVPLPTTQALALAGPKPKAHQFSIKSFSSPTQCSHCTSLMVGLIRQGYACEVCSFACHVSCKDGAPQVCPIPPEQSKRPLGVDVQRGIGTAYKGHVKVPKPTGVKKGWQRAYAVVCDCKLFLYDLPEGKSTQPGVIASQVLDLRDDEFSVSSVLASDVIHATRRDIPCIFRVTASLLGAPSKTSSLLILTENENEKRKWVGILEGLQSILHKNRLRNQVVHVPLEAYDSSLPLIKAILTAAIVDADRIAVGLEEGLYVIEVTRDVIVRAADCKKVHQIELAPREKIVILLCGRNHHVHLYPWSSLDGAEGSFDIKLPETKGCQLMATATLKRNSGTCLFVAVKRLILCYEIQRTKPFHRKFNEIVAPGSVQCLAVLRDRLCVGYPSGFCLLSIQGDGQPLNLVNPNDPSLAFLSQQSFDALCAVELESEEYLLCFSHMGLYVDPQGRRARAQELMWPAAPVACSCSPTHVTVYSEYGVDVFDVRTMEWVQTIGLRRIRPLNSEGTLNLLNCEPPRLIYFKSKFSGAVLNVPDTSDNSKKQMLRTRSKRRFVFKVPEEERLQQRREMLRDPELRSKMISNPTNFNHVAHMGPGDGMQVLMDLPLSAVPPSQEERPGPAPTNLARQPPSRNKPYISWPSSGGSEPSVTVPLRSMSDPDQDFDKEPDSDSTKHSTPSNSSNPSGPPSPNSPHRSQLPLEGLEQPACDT
Chain of MRCKA (Q5VT25 whole entry): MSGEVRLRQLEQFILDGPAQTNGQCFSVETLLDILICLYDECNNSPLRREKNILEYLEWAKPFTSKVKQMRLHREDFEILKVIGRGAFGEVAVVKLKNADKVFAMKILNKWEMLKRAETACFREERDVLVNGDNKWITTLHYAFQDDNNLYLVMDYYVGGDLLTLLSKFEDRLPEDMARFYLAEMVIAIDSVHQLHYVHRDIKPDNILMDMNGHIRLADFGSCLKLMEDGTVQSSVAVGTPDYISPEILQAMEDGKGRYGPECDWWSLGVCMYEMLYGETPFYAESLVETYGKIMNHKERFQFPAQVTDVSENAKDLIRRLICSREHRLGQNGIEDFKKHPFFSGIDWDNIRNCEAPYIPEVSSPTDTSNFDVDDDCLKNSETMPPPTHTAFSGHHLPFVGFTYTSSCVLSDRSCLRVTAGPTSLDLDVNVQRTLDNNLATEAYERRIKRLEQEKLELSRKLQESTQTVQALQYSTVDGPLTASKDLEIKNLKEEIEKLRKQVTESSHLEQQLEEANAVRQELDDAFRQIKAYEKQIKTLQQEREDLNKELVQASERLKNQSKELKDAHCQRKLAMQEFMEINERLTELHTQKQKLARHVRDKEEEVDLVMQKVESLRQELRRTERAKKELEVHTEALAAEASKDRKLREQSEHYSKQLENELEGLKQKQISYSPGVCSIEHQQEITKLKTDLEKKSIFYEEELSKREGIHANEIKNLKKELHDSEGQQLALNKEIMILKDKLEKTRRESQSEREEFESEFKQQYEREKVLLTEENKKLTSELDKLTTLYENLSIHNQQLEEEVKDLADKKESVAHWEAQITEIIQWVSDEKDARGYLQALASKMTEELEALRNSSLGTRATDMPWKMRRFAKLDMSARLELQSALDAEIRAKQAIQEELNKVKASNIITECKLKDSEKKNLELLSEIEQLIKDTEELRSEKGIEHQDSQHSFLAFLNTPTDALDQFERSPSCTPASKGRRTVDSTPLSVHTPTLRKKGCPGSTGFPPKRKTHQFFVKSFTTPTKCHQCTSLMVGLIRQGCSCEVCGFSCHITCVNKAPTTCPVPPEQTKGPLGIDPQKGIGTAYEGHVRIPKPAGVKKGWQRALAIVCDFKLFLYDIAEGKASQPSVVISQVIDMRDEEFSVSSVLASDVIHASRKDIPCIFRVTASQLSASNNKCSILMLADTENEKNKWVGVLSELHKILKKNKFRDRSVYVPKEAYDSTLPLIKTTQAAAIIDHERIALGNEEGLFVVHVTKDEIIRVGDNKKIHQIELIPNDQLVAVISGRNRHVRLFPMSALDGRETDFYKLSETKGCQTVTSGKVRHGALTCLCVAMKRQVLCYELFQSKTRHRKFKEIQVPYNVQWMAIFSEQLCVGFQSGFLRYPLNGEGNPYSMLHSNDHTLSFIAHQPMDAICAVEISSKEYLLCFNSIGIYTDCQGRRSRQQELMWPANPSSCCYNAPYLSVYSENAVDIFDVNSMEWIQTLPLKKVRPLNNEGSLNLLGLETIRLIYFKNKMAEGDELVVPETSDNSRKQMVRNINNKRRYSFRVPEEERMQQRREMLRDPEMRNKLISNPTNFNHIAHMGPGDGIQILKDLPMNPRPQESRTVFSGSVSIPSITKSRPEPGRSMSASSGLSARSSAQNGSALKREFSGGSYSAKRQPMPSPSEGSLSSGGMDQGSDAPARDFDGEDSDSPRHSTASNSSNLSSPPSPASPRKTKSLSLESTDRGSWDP
T3 sequence (O75116 whole entry): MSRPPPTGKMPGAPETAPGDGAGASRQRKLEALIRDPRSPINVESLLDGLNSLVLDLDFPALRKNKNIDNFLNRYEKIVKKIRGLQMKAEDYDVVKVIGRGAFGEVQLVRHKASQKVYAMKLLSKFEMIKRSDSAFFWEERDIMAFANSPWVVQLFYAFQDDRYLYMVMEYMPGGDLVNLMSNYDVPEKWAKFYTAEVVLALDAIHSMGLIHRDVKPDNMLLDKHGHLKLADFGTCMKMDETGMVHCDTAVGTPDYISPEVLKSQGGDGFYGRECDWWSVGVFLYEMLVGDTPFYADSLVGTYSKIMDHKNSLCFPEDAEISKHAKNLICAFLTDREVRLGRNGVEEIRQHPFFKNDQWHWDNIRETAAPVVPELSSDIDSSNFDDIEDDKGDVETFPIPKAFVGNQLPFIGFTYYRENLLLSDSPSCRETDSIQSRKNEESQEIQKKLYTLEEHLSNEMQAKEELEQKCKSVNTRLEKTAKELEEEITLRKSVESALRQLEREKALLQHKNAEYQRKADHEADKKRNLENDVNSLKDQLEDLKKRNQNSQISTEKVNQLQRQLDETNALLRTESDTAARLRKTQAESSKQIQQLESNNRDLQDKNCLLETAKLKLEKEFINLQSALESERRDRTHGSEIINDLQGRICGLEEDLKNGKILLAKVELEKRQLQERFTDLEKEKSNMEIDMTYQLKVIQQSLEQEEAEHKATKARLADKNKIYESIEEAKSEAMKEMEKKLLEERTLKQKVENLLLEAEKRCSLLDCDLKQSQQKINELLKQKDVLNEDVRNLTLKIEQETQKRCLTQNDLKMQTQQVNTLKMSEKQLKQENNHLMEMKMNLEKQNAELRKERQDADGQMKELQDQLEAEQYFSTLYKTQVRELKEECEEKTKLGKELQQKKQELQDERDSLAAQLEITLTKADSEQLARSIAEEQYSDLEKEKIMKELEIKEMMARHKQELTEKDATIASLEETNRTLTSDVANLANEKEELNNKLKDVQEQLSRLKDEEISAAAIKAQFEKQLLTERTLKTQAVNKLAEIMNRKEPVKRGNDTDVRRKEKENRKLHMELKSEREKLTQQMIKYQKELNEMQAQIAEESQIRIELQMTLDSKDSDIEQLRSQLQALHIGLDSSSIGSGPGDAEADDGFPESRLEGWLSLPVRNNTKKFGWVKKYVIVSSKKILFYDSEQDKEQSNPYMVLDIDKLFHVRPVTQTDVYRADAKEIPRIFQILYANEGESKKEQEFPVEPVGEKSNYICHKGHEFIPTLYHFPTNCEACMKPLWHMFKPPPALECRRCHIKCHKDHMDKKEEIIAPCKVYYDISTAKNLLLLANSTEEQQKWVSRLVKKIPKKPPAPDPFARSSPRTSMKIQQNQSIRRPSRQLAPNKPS

MIB-binding of MRCKA relative to DMSO (MRCKA): Reduced MIB-binding
MIB-binding of MRCKB relative to DMSO (MRCKB): Reduced MIB-binding
MIB-binding of ROCK1 (ROCK1): reduction in MIB-binding
MIB-binding of ROCK2 (ROCK2): reduction in MIB-binding
Compound: CC1=C(C(=O)Nc2cc(Cl)c3[nH]ncc3c2)C(c2ccc(C(F)(F)F)cc2)CC(=O)N1 (stereo not drawn) [GSK466317A]
FAK1, MLC and Paxillin phosphorylation [1]: reduced

Compound: CS(=O)(=O)CCNCc1ccc(-c2ccc3ncnc(Nc4ccc(OCc5cccc(F)c5)c(Cl)c4)c3c2)o1 [Lapatinib]
MIB-binding of MRCKA relative to DMSO (MRCKA): no effect
MIB-binding of MRCKB relative to DMSO (MRCKB): no effect
Kinase inhibition profile of HGSOC cells (growth inhibition, Cell Titer Glo) (COV362): 0.9973
Kinase inhibition profile of HGSOC cells (growth inhibition, Cell Titer Glo) (Kuramochi): 0.9704
Kinase inhibition profile of HGSOC cells (growth inhibition, Cell Titer Glo) (SNU-119): 0.15
Kinase inhibition profile of HGSOC cells (growth inhibition, Cell Titer Glo) (OVSAHO): 1.053
Kinase inhibition profile of HGSOC cells (growth inhibition, Cell Titer Glo) (OVCAR4): 0.974

Compound: CNC(=O)c1ccccc1Nc1cc(Nc2ccc(N3CCOCC3)cc2OC)ncc1C(F)(F)F [PND1186]
Kinase inhibition profile of HGSOC cells (growth inhibition, Cell Titer Glo) (COV362): 0.34
cell viability of HGSOC cells (HGSOC cells [2]): reduced cell viability
Kinase inhibition profile of HGSOC cells (growth inhibition, Cell Titer Glo) (Kuramochi): 0.51
Kinase inhibition profile of HGSOC cells (growth inhibition, Cell Titer Glo) (SNU-119): 0
Kinase inhibition profile of HGSOC cells (growth inhibition, Cell Titer Glo) (OVSAHO): 0.69
Kinase inhibition profile of HGSOC cells (growth inhibition, Cell Titer Glo) (OVCAR4): 0.51

MIB-binding of ROCK1 (ROCK1): reduction in MIB-binding
Compound: O=C(NCc1cccc(O)c1)Nc1nc(-c2ccncc2)cs1 [RKI-1447]
FAK1, MLC and Paxillin phosphorylation [1]: reduced

Compound: CCn1c(-c2nonc2N)nc2cncc(C(=O)N3CC[C@H](N)C3)c21 [SB-772077-B]
FAK1, MLC and Paxillin phosphorylation [1]: reduced
MIB-binding of ROCK2 (ROCK2): reduction in MIB-binding

MIB-binding of MRCKA relative to DMSO (MRCKA): no effect
MIB-binding of MRCKB relative to DMSO (MRCKB): no effect
Compound: Fc1ccc(Cl)cc1-c1nc(Nc2ccncc2)c2nccnc2n1 [SD-208]

Compound: N.N.O=C([O-])C1(C(=O)[O-])CCC1.[Pt+2] [carboplatin]
growth inhibition by drug with MRCKA knockdown relative to non-targeting control siRNA (OVCAR4 cells): enhanced growth inhibition
cell growth and apoptosis, MRCKA knockdown in combination with drug [3]: inhibited cell growth and induced apoptosis
apoptosis (cleaved PARP) of drug plus MRCKA depletion (HGSOC cells [4]; HGSOC cell lines): induced apoptosis better than individual therapies
effect of drug on cell viability with MRCKA depletion (HGSOC cells [4]; additional HGSOC cell lines, increasing doses): enhanced the effect of carboplatin

Compound: O=C(c1cc(Cc2n[nH]c(=O)c3ccccc23)ccc1F)N1CCN(C(=O)C2CC2)CC1 [olaparib]
growth inhibition by drug with MRCKA knockdown relative to non-targeting control siRNA (OVCAR4 cells): enhanced growth inhibition
growth inhibitory and apoptotic response to drug with MRCKA knockdown (HGSOC cells [4]; HGSOC cells, increasing doses): improved the growth inhibitory and apoptotic response
